Experimental data published in patent publication US6235769A, “Methods of preventing and treating neurological disorders with compounds that modulate the function of the C-RET receptor protein tyrosine kinase” (Sugen, Inc., priority 1998, dated 2001).

Tests used:
Format in all cases: cell-based
FLK-1 receptor = experiment: FLK-1 ELISA, catalytic activity of the FLK-1 receptor in FLK-1/NIH3T3 cells; conditions: concentration that yielded a two-hundred percent increase in catalytic activity in the FLK-1 ELISA
Protocol: An enzyme linked immunosorbant assay (ELISA) can be conducted to measure the catalytic activity of the FLK-1 receptor and more specifically, the inhibition or activation of indolinone compounds of the catalytic activity of the FLK-1 receptor. The following assay was conducted to measure catalytic activity of the FLK-1 receptor in FLK-l/NIH3T3 cells.
One skilled in the art can adapt such a procedure to other receptor tyrosine protein kinases to identify compounds that modulate the function of the receptor.
This type of assay can be developed for nearly any RPTK using well known techniques utilized by persons of ordinary skill in the art. The FLK-1/NIH3T3 cell lines are also created by techniques well known to those skilled in the art. The NIH3T3 cells were stably transfected with gene constructs containing the FLK-1 gene. The nucleic acid vectors used for this type of procedure are commonly and commercially available to those skilled in the art. The methods of cloning the genes of interest into these nucleic acid vectors and the methods of transfecting these nucleic acid constructs into cells are also well known to those skilled in the art. Sambrook, Fritsch, Maniatis, Molecular Cloning, A Laboratory Manual 2nd Ed., Cold Spring Harbor Laboratory Press, 1989.
1. Coat Corning 96-well ELISA plates with 1.0 μg per well Cappel Anti-rabbit IgG antibody in 0.1 M Na2 CO3 pH 9.6. Bring final volume to 150 μL per well. Coat plates overnight at 4° C. Plates can be kept up to two weeks when stored at 4° C.
2. Grow cells in Growth media (DMEM, supplemental with 2.0 mM L-Glutamine, 10% FBS) in suitable culture dishes until confluent at 37° C., 5% CO2.
3. Harvest cells by trypsinization and seed in Corning 25850 polystyrene 96-well roundbottom cell plates, 25.000 cells/well in 200 μL of growth media.
4. Grow cells at least one day at 37° C., 5% CO2.
5. Wash cells with D-PBS 1×.
6. Add 200 μL/well of starvation media (DMEM, 2.0 mM 1-Glutamine, 0.1% FBS). Incubate overnight at 37° C., 5% CO2.
7. Dilute Compounds/Extracts 1:20 in polypropylene 96 well plates using starvation media. Dilute dimethylsulfoxide 1:20 for use in control wells.
8. Remove starvation media from 96 well cell culture plates and add 162 μL of fresh starvation media to each well.
9. Add 18 μL of 1:20 diluted Compound/Extract dilution (from step 7) to each well plus the 1:20 dimethylsulfoxide dilution to the control wells (+/-VEGF), for a final dilution of 1:200 after cell stimulation. Final dimethylsulfoxide is 0.5%. Incubate the plate at 37° C., 5% CO2 for two hours.
10. Remove unbound antibody from ELISA plates by inverting plate to remove liquid. Wash 3 times with TBSW+0.5% ethanolamine, pH 7.0. Pat the plate on a paper towel to remove excess liquid and bubbles.
11. Block plates with TBSW+0.5% Ethanolamine, pH 7.0, 150 μL per well. Incubate plate thirty minutes while shaking on a microtiter plate shaker.
12. Wash plate 3 times as described in step 10.
13. Add 0.5 μg/well affinity purified […] polyclonal rabbit antiserum. Bring final volume to 150 μL/well with TBSW+0.5% ethanolamine pH 7.0. Incubate plate for thirty minutes while shaking.
14. Add 180 μL starvation medium to the cells and stimulate cells with 20 μL/well 10.0 mM sodium ortho vanadate and 500 ng/mL VEGF (resulting in a final concentration of 1.0 mM sodium ortho vanadate and 50 ng/mL VEGF per well) for eight minutes at 37° C., 5% CO2. Negative control wells receive only starvation medium.
15. After eight minutes, media should be removed from the cells and washed one time with 200 μL/well PBS.
16. Lyse cells in 150 μL/well HNTG while shaking at room temperature for five minutes. HNTG formulation includes sodium ortho vanadate, sodium pyro phosphate and EDTA.
17. Wash ELISA plate three times as described in step 10.
18. Transfer cell lysates from the cell plate to ELISA plate and incubate while shaking for two hours. To transfer cell lysate pipette up and down while scrapping the wells.
19. […]

[1] = tested on: c-ret chimera (human C-RET transmembrane and cytoplasmic domains fused to chicken TRKA extracellular domain); experiment: Chimeric receptor activation in infected C6 glioma cells (anti-phosphotyrosine immunoblot), c-ret chimera; conditions: 50 ng/mL NGF, five minutes
Protocol: (§1) DNA constructs were generated, which encoded the transmembrane and cytoplasmic domains from human MCK-10, C-RET, mouse SEK, and rat TRKA fused to the chicken TRKA extracellular domain. These chimeric receptor constructs were then inserted into the adenovirus transfer vector, and recombinant viruses were generated and purified. Rat C6 glioma cells were infected with the recombinant viruses, and the resulting chimeric receptors were analyzed via immunoblot analysis.
(§2) The ability to activate the chimeras was evaluated by incubating the infected C6 monolayers with 50 ng/mL NGF for five minutes. The receptors were immunoprecipitated with the CTA antibody, immunoblotted, and probed either with the anti-phosphotyrosine antibody 4G10 or with the CTA antibody preparation.
(§3) C6 glioma cells were grown in Ham's Flo medium containing 10% fetal calf serum; for receptor activation experiments the medium was changed to 0.5% fetal calf serum 12 hours prior to stimulation.

rat trkA receptor = experiment: Receptor phosphorylation in cells expressing both rat and chicken trkA, rat receptor
Protocol: (§4) The assumption was tested by expressing both rat and chicken trkA receptors in the same cell and activating them with either neurotrophic growth factor (NGF), which binds both receptors, or with the CTA antibody, which binds only the chick receptor. […] The effects of the CTA antibody preparation were therefore not attributable to activation of endogenous trkA receptors.
(§5) The conditions for immunoprecipitation and immunoblotting used in the experiments were described previously (Clary et al., 1994, Mol. Biol. Cell 5: 549-563) with modifications as follows. Immunoblots were performed in Tris-buffered saline containing 0.1% Triton X-100, and filter blocking and antibody incubations were performed in the same buffer with 1% BSA. In other experiments, anti-phosphotyrosine detection was performed with biotinylated-4G10 monoclonal antibody followed by a peroxidase avidin-biotin complex. Other antibodies were detected with peroxidase coupled anti-mouse IgG, anti-rabbit IgG, or protein A as indicated. All peroxidase conjugates were detected using a chemiluminescence protocol (Pierce Chemical Co. Rockford, Ill.).

[2] = tested on: sek chimera (mouse SEK transmembrane and cytoplasmic domains fused to chicken TRKA extracellular domain); experiment: Chimeric receptor activation in infected C6 glioma cells (anti-phosphotyrosine immunoblot), sek chimera; conditions: 50 ng/mL NGF, five minutes
Protocol: as §1, §2, §3

chicken trkA receptor = experiment: Receptor phosphorylation in cells expressing both rat and chicken trkA, chick receptor; conditions: NGF or CTA
Protocol: as §4, §5

[3] = tested on: MCK-10 chimera (human MCK-10 transmembrane and cytoplasmic domains fused to chicken TRKA extracellular domain); experiment: Chimeric receptor activation in infected C6 glioma cells (anti-phosphotyrosine immunoblot), MCK-10 chimera; conditions: 50 ng/mL NGF, before or after incubation
Protocol: as §1, §2, §3

CC(C)c1cc(C(C)C)c(/C=C2\C(=O)Nc3ccc(C(=O)O)cc32)[nH]1 [Indolinone 1]
EC200 (FLK-1 receptor): 10 µM

CCc1cc(CC)c(/C=C2\C(=O)Nc3ccc(C(=O)O)cc32)[nH]1 [Indolinone 2]
EC200 (FLK-1 receptor): 2.8 µM

Cc1cc(C)c(/C=C2\C(=O)Nc3ccc(CCC(=O)O)cc32)[nH]1 [Indolinone 3]
EC200 (FLK-1 receptor): 32 µM

Cc1cc(C)c(/C=C2\C(=O)Nc3ccc(C(=O)O)cc32)[nH]1 [Indolinone 4]
EC200 (FLK-1 receptor): 2.8 µM

Cc1ccc(/C=C2\C(=O)Nc3ccc(CCC(=O)O)cc32)s1 [Indolinone 5]
EC200 (FLK-1 receptor): > 100 µM

Cc1ccc(/C=C2\C(=O)Nc3ccc(C(=O)O)cc32)s1 [Indolinone 6]
EC200 (FLK-1 receptor): 46 µM

NGF: nerve growth factor, which binds to the extracellular region of the TRK receptor
activation of c-ret chimera [1]: NGF-dependent activation of the c-ret and sek chimeras was detected
activation of the rat receptor (rat trkA receptor): activation of the rat receptor was detected only after NGF addition
activation of sek chimera [2]: NGF-dependent activation of the c-ret and sek chimeras was detected
phosphorylation of the chick receptor (chicken trkA receptor): became phosphorylated
phosphotyrosine of MCK-10 chimeric protein [3]: Phosphotyrosine was not detected
